Experiment: xn = mol fraction of the nth substance listed
Conditions: 101.33 kPa, Liquid

Cc1cccnc1 [3-methylpyridine] + O
Conditions	mass density [kg/m3]	viscosity [mPa·s]
293.15 K, x1 = 0.0101	998	1.149
293.15 K, x1 = 0.0211	997.8	1.301
293.15 K, x1 = 0.033	997.5	1.467
293.15 K, x1 = 0.0462	997.2	1.626
293.15 K, x1 = 0.114	995.4	2.301
293.15 K, x1 = 0.225	992.1	2.914
293.15 K, x1 = 0.36	986.9	3.04
293.15 K, x1 = 0.436	983.1	2.9
293.15 K, x1 = 0.5	979.7	2.733
293.15 K, x1 = 0.6	974.3	2.386
293.15 K, x1 = 0.7	969	2.021
293.15 K, x1 = 0.8	964.1	1.655
293.15 K, x1 = 0.9	959.8	1.31
293.15 K, x1 = 1	956	0.9459
303.15 K, x1 = 0.0101	995.1	0.913
303.15 K, x1 = 0.0211	994.4	1.021
303.15 K, x1 = 0.033	993.7	1.133
303.15 K, x1 = 0.0462	992.9	1.255
303.15 K, x1 = 0.114	989.3	1.705
303.15 K, x1 = 0.225	984	2.022
303.15 K, x1 = 0.36	977.8	2.034
303.15 K, x1 = 0.436	973.6	1.938
303.15 K, x1 = 0.5	970.2	1.83
303.15 K, x1 = 0.6	964.5	1.638
303.15 K, x1 = 0.7	959.4	1.449
303.15 K, x1 = 0.8	954.6	1.255
303.15 K, x1 = 0.9	950.3	1.049
303.15 K, x1 = 1	946.6	0.8318
313.15 K, x1 = 0.0101	991.2	0.731
313.15 K, x1 = 0.0211	990.2	0.8139
313.15 K, x1 = 0.033	989.2	0.8959
313.15 K, x1 = 0.0462	988	0.98
313.15 K, x1 = 0.114	982.9	1.307
313.15 K, x1 = 0.225	976.4	1.572
313.15 K, x1 = 0.36	968.9	1.588
313.15 K, x1 = 0.436	964.7	1.511
313.15 K, x1 = 0.5	961	1.43
313.15 K, x1 = 0.6	955.3	1.286
313.15 K, x1 = 0.7	950.2	1.149
313.15 K, x1 = 0.8	945.5	1.018
313.15 K, x1 = 0.9	941.3	0.884
313.15 K, x1 = 1	937.7	0.7352
323.15 K, x1 = 0.0101	986.6	0.6101
323.15 K, x1 = 0.0211	985.2	0.6693
323.15 K, x1 = 0.033	983.7	0.7356
323.15 K, x1 = 0.0462	982.3	0.7921
323.15 K, x1 = 0.114	975.6	1.048
323.15 K, x1 = 0.225	967.7	1.23
323.15 K, x1 = 0.36	959.4	1.255
323.15 K, x1 = 0.436	954.9	1.207
323.15 K, x1 = 0.5	951.2	1.162
323.15 K, x1 = 0.6	945.5	1.071
323.15 K, x1 = 0.7	940.5	0.9777
323.15 K, x1 = 0.8	935.9	0.8686
323.15 K, x1 = 0.9	931.8	0.7536
323.15 K, x1 = 1	928.3	0.6565
333.15 K, x1 = 0.0101	981.4	0.5203
333.15 K, x1 = 0.0211	979.6	0.5735
333.15 K, x1 = 0.033	977.7	0.6346
333.15 K, x1 = 0.0462	975.8	0.6624
333.15 K, x1 = 0.114	967.9	0.866
333.15 K, x1 = 0.225	958.7	1.015
333.15 K, x1 = 0.36	950	1.042
333.15 K, x1 = 0.436	945.4	1.004
333.15 K, x1 = 0.5	941.8	0.9701
333.15 K, x1 = 0.6	936.1	0.8988
333.15 K, x1 = 0.7	931.1	0.8305
333.15 K, x1 = 0.8	926.7	0.7562
333.15 K, x1 = 0.9	922.7	0.6699
333.15 K, x1 = 1	919.3	0.5936
343.15 K, x1 = 0.0101	975.8	0.4504
343.15 K, x1 = 0.0211	973.7	0.4888
343.15 K, x1 = 0.033	971.7	0.5355
343.15 K, x1 = 0.0462	969.4	0.5782
343.15 K, x1 = 0.114	960.5	0.7454
343.15 K, x1 = 0.225	950.2	0.8494
343.15 K, x1 = 0.36	940.4	0.8766
343.15 K, x1 = 0.436	936	0.8557
343.15 K, x1 = 0.5	932.3	0.8315
343.15 K, x1 = 0.6	926.8	0.786
343.15 K, x1 = 0.7	921.8	0.7335
343.15 K, x1 = 0.8	917.4	0.673
343.15 K, x1 = 0.9	913.6	0.6135
343.15 K, x1 = 1	910.3	0.539

Source: the NIST ThermoML archive (doi:10.1016/j.jct.2004.11.009)
